Where only a bound is given, the exact number is not on record here.

Format in all cases: cell-based
The test system of one test is COLO205 (colon). The test can be described thus: Inhibition of cell proliferation, CellTiter-Glo, COLO205. The settings on record: Homo sapiens, COLO 205, 72 h. The method, boiled down: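 Exponentially growing COLO205 cells in medium with 10% FBS were plated below 2000 cells/well at 37 °C, 5% CO2. Untreated wells served as controls.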
Test [1] relates to NCI-H929 (multiple myeloma). The test can be described thus: Inhibition of cell proliferation, CellTiter-Glo, NCI-H929. The settings on record: Homo sapiens, 72 h. The procedure, abridged:
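Cells were grown in medium with 10% FBS at 37° C, 5% CO2. Cell number was read as CellTiter-Glo luminescence (cellular ATP), with untreated wells as control.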
(Cellular ATP, detected with luciferase, serves as a proxy for viable cell number.)

For test [2], the target named is T1, human IGF-1R (NIH-3T3 cells over expressing human IGF-1R) (Homo sapiens, UniProt P08069).
T1 construct: expressed in transfected cells; host or cells: NIH-3T3 (mouse fibroblasts)
As to the kind of experiment: IGF-1R cellular autophosphorylation (DELFIA). The settings on record: IGF-1 stimulated. The procedure, abridged:
(§1)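 Autophosphorylation of IGF-1R or IR is measured in NIH-3T3 lines overexpressing each human receptor after 2 h compound pretreatment and a 15 min ligand challenge (IGF-1 30 ng/mL; insulin 3 ug/mL). Fluorescence is normalised to 100% stimulation.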

The target of test [3] is T2, IR (NIH-3T3 cells over expressing human IGF-1R or IR) (Homo sapiens, UniProt P06213).
T2 construct: expressed in transfected cells; host or cells: NIH-3T3 (mouse fibroblasts)
As to the kind of experiment: IR cellular autophosphorylation (DELFIA). To be noted: NIH-3T3 cells over expressing IR, insulin stimulated. The procedure, abridged:
as §1

T2 sequence (P06213 28-1382): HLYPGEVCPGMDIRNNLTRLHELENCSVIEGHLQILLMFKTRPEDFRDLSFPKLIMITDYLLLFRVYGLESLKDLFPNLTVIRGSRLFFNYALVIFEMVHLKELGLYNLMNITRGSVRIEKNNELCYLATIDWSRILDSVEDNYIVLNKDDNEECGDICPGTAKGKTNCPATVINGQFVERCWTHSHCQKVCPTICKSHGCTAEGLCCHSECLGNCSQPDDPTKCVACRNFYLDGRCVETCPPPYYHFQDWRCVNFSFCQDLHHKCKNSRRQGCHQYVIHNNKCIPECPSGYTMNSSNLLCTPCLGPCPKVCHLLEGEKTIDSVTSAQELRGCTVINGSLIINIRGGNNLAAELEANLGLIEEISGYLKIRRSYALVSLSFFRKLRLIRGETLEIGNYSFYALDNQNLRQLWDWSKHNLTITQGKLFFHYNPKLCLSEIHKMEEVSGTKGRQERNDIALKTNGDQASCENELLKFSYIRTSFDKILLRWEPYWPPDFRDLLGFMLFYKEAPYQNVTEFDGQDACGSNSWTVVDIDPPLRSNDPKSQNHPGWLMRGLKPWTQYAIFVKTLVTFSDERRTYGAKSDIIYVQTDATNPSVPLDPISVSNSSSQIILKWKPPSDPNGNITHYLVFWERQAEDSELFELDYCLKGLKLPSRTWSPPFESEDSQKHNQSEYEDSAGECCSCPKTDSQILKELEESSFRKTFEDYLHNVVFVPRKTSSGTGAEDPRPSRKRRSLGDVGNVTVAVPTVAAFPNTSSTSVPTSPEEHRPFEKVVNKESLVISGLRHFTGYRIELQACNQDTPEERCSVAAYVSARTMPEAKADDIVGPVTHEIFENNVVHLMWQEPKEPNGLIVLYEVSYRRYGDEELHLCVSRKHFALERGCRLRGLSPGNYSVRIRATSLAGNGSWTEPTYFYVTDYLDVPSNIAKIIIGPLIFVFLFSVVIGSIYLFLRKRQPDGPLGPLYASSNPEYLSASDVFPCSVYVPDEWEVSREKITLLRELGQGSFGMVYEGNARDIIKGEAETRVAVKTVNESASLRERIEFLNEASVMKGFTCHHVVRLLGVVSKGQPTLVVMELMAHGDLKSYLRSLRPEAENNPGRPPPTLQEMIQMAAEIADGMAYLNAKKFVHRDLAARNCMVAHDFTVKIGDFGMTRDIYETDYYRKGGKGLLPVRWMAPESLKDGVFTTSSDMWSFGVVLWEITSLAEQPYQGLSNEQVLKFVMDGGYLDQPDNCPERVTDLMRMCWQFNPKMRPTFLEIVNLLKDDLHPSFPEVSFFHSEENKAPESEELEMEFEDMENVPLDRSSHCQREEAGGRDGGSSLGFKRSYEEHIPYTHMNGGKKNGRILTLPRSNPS
T1 sequence (P08069 31-1367): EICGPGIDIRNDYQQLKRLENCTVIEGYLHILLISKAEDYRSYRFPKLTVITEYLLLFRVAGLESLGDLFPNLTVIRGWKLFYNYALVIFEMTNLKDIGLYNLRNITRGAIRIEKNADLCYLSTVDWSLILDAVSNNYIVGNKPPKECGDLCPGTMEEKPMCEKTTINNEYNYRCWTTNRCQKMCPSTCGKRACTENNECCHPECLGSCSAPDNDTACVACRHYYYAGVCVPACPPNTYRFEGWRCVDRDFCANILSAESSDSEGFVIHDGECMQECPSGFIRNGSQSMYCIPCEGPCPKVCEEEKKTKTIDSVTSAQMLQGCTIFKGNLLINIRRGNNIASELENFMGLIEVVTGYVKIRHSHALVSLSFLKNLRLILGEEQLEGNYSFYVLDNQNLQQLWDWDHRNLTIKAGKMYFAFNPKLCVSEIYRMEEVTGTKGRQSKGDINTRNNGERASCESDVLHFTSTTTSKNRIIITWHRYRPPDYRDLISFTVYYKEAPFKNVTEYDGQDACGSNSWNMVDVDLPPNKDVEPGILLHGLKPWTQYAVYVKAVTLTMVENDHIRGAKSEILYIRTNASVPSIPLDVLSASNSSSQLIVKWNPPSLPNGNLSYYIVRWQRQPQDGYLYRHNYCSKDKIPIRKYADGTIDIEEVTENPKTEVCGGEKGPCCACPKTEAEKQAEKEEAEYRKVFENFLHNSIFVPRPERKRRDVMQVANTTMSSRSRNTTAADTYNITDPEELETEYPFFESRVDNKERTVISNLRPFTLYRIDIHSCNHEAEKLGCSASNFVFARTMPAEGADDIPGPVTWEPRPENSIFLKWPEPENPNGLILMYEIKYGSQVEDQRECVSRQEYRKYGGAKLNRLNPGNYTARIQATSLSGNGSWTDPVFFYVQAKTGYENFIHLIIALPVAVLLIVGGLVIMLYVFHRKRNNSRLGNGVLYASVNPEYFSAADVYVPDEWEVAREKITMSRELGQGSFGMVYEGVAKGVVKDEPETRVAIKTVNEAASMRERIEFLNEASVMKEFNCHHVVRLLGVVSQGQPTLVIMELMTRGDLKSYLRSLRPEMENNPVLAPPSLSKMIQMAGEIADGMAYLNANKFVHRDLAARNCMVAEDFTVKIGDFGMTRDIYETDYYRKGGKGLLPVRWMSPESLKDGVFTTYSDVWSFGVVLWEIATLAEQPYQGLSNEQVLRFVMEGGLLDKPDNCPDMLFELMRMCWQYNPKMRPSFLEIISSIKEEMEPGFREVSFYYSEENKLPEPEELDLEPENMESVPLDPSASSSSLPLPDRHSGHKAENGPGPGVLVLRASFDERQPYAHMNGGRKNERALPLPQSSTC

The IC50 is the point on the concentration scale where inhibition reaches its midpoint. A lower IC50 goes with inhibition by little substance. As to `CCOc1cc(N2CCC(N3CCN(S(C)(=O)=O)CC3)CC2)ccc1Nc1nccc(-c2c(-c3ccc(OCC)c(C(=O)Nc4c(F)cccc4F)c3)nc3ccccn23)n1` [Example 222, N-(2,6-difluorophenyl)-2-(ethyloxy)-5-(3-{2-[(2-(ethyloxy)-4-{4-[4-(methylsulfonyl)-1-piperazinyl]-1-piperidinyl}phenyl)amino]-4-pyrimidinyl}imidazo[1,2-a]pyridin-2-yl)benzamide], the IC50 is less than 250 nM in the test on COLO205 (colon), less than 250 nM in test [1], less than 100 nM in test [2] and less than 100 nM in test [3].

Turning to `CCCN1CCC(c2ccc(Nc3nccc(-c4c(-c5ccc(OC)c(C(=O)Nc6c(F)cccc6F)c5)nc5ccccn45)n3)c(OC)c2)CC1` [Example 137, N-(2,6-difluorophenyl)-2-(methyloxy)-5-[3-(2-{[2-(methyloxy)-4-(1-propyl-4-piperidinyl)phenyl]amino}-4-pyrimidinyl)imidazo[1,2-a]pyridin-2-yl]benzamide], the IC50 was 250 to 1000 nM in the test on COLO205 (colon), less than 250 nM in test [1], less than 100 nM in test [2] and less than 100 nM in test [3].

In the case of `COc1cc(N2CCC(C3CCN(CCS(C)(=O)=O)CC3)CC2)ccc1Nc1nccc(-c2c(-c3cccc(C(=O)Nc4c(F)cccc4F)c3)nc3ccccn23)n1` [Example 97, N-(2,6-difluorophenyl)-3-(3-{2-[(2-(methyloxy)-4-{1′-[2-(methylsulfonyl)ethyl]-4,4′-bipiperidin-1-yl}phenyl)amino]-4-pyrimidinyl}imidazo[1,2-a]pyridin-2-yl)benzamide], the IC50 in the test on COLO205 (colon) is 250 to 1000 nM; in test [1] it was 250 to 1000 nM; in test [2], less than 100 nM; in test [3], less than 100 nM.

Regarding `CCOc1cc(N2CCN(CCS(C)(=O)=O)CC2)c(C)cc1Nc1nccc(-c2c(-c3ccc(OCC)c(C(=O)Nc4c(F)cccc4F)c3)nc3ccccn23)n1` [Example 248, N-(2,6-difluorophenyl)-2-(ethyloxy)-5-(3-{2-[(2-(ethyloxy)-5-methyl-4-{4-[2-(methylsulfonyl)ethyl]-1-piperazinyl}phenyl)amino]-4-pyrimidinyl}imidazo[1,2-a]pyridin-2-yl)benzamide], the IC50 in the test on COLO205 (colon) is less than 250 nM; in test [1], less than 250 nM; in test [2], less than 100 nM; in test [3] it was less than 100 nM.

In the case of `CCOc1ccc(-c2nc3ccccn3c2-c2ccnc(Nc3ccc(N4CCN(S(C)(=O)=O)CC4)cc3OC)n2)cc1C(=O)Nc1c(F)cccc1F` [Example 232, N-(2,6-difluorophenyl)-2-(ethyloxy)-5-{3-[2-({2-(methyloxy)-4-[4-(methylsulfonyl)-1-piperazinyl]phenyl]amino)-4-pyrimidinyl]imidazo[1,2-a]pyridin-2-yl}benzamide], the IC50 with COLO205 (colon) was less than 250 nM; in test [1], less than 250 nM; in test [2], less than 100 nM; in test [3], less than 100 nM.

Consider `COc1cc(N2CCC(N3CCN(CCF)CC3)CC2)ccc1Nc1nccc(-c2c(-c3cccc(C(=O)Nc4c(F)cccc4F)c3)nc3cc(F)ccn23)n1` [Example 194, N-(2,6-difluorophenyl)-3-[7-fluoro-3-(2-{[4-{4-[4-(2-fluoroethyl)-1-piperazinyl]-1-piperidinyl}-2-(methyloxy)phenyl]amino]-4-pyrimidinyl)imidazo[1,2-a]pyridin-2-yl]benzamide], for which the IC50 in the test on COLO205 (colon) is 250 to 1000 nM; in test [1], 250 to 1000 nM; in test [2], less than 100 nM; in test [3], 100 to 500 nM.

Turning to `CCOc1ccc(-c2nc3ccccn3c2-c2ccnc(Nc3ccc(N4CCN(CCOC)CC4)cc3OC)n2)cc1C(=O)Nc1c(F)cccc1F` [Example 238, N-(2,6-difluorophenyl)-2-(ethyloxy)-5-(3-{2-[(2-(methyloxy)-4-{4-[2-(methyloxy)ethyl]-1-piperazinyl}phenyl)amino]-4-pyrimidinyl}imidazo[1,2-a]pyridin-2-yl)benzamide], the IC50 in the test with COLO205 (colon) is 250 to 1000 nM; in test [1], less than 250 nM; in test [2], less than 100 nM; in test [3] it was less than 100 nM.
